Reference: ChEMBL document CHEMBL4190290, “Synthesis and antiangiogenic activity study of new hop chalcone Xanthohumol analogues” (Eur J Med Chem, 2017)
Active and inactive are the calls of the source. The rule behind the calls is not given here.

Key:
HUVEC [1] = experiment: Antimigratory activity in HUVEC at 10 uM after 6 hrs by DAPI staining based Boyden chamber method; type: functional, cell-based; details: Homo sapiens
HUVEC [2] = experiment: Anti-invasive activity in HUVEC at 10 uM after 24 hrs by DAPI staining based Boyden chamber method; type: functional, cell-based; details: Homo sapiens
HUVEC [3] = experiment: Antiangiogenic activity in fibronectin pretreated HUVEC assessed as reduction in cell adhesion at 10 uM after 90 mins by DAPI staining based microscopic method; type: functional; details: Homo sapiens
HUVEC [4] = experiment: Antiangiogenic activity in HUVEC assessed as inhibition of cell morphogenesis by measuring reduction in capillary like structure formation at 10 uM after 6 hrs by inverted microscopic method; type: functional, cell-based; details: Homo sapiens
HUVEC [5] = experiment: Cytotoxicity against HUVEC assessed as reduction in cell viability at 10 uM after 96 hrs by MTT assay; type: cell-based; details: human
HUVEC [6] = experiment: Cytotoxicity against HUVEC assessed as reduction in cell viability up to 20 uM up to 96 hrs by MTT assay; type: cell-based; details: human
HUVEC [7] = experiment: Cytotoxicity against HUVEC assessed as reduction in cell viability at 20 uM up to 96 hrs by MTT assay; type: cell-based; details: human
HUVEC [8] = experiment: Cytotoxicity against HUVEC assessed as induction of apoptosis at 10 uM after 24 hrs by Annexin V/7-AAD staining based flow cytometry; type: cell-based; details: human

| Structure (SMILES) | Activity (HUVEC [1]) | Activity (HUVEC [2]) | Activity (HUVEC [3]) | Antiangiogenic activity (active/not active) (HUVEC [4]) | Activity (HUVEC [5]) | Activity (HUVEC [6]) | Activity (HUVEC [7]) | Activity (HUVEC [8]) |
| --- | --- | --- | --- | --- | --- | --- | --- | --- |
| COCOc1cc(OC)c(C(=O)/C=C/c2ccc(F)cc2)c(O)c1CC=C(C)C | Active | inactive |  |  |  |  |  |  |
| COCOc1cc(OC)c(C(=O)/C=C/c2ccccc2F)c(O)c1CC=C(C)C |  |  | Active | Active |  |  |  |  |
| COCOc1cc(OC)c(C(=O)/C=C/c2ccc(OC)cc2F)c(OCOC)c1CC=C(C)C | Active | inactive | Active | Active | Toxic |  |  |  |
| COc1cc(O)c(CC=C(C)C)c(O)c1C(=O)/C=C/c1ccc(F)cc1 | Active | inactive | Active | Active |  |  |  |  |
| COCOc1cc(OC)c(C(=O)/C=C/c2ccc(OC)c(F)c2)c(OCOC)c1CC=C(C)C | Active | inactive | Active | Active | Toxic |  |  |  |
| COCOc1cc(OC)c(C(=O)/C=C/c2ccc(OC)cc2F)c(O)c1CC=C(C)C |  | inactive | Active | Active |  | Non-Toxic |  |  |
| COCOc1cc(OC)c(C(=O)/C=C/c2ccc(OC)c(F)c2)c(O)c1CC=C(C)C | Active | inactive | Active | Active |  |  |  |  |
| COCOc1cc(OC)c(C(=O)/C=C/c2ccc([N+](=O)[O-])cc2)c(O)c1CC=C(C)C | Active | inactive | Active | Active |  |  | Toxic | Toxic |
| COc1ccc(/C=C/C(=O)c2c(OC)cc(O)c(CC=C(C)C)c2O)c(F)c1 | Active | inactive | Active | Active |  |  | Toxic |  |
| COc1cc(O)c(CC=C(C)C)c(O)c1C(=O)/C=C/c1ccccc1F |  |  | Active | Active |  |  |  |  |
| COc1cc(O)c(CC=C(C)C)c(O)c1C(=O)/C=C/c1ccc(O)cc1 [XANTHOHUMOL] | Active | Active | Active | Active |  |  | Toxic |  |
| COc1ccc(/C=C/C(=O)c2c(OC)cc(O)c(CC=C(C)C)c2O)cc1F | Active | inactive | Active | Active |  |  |  |  |
